Measured values reported in PMC5823845 (Bioorganic & Medicinal Chemistry, 2018).

Tested on: panel of 120 other receptors, channels and enzymes
Assay: CEREP selectivity screen, binding and enzyme assays
Conditions: 10 μM
Procedure: The CEREP selectivity screen was performed on the following targets:
A1, A2A, A3, α1, α2, β1, β2, AT1, AT2, BZD central, BZD periph, BB, B2, CGRP, CB1, CCK1, CCK2, D1, D2S, D3, D4.4, D5, ETA, ETB, GABA, GAL1, GAL2, PDGF, CXCR2, CCR1, TNF- α, H1, H2, MC4, MT1, M1, M2, M3, M4, M5, NK1, NK2, NK3,Y1, Y2, NTS1(NT1), δ2, κ, µ, NOP(ORL1) , PAC1(PACAP), PPARγ, PCP, EP2, EP4, IP(PGI2,), P2X, P2Y,5-HT1A, 5-HT1B, 5-HT2A, 5-HT2B, 5-HT2C, 5-HT3, 5-HT5A, 5-HT6, 5-HT7, σ, sst, GR, ER, VPAC1(VIP1), V1a, Ca^2+ channel (L), KV channel, KV channel, SKCa channel, Na^+ channel, Cl^- channel, norepinephrine transporter. dopamine transporter, 5-HT transporter.
sPLA2, COX1, COX2, 5-lipoxygenase, 12-lipoxygenase, inducible NOS, PDE2A1, PDE3A, PDE4D2, PDE5, PDE6, ACE, ACE-2, BACE-2, ECE-1, elastase, caspase-3, caspase-8, cathepsin D, cathepsin L, neutral endopeptidase, MMP-1, MMP-3, MMP-9, tryptase, TACE, phosphatase 1B, phosphatase CDC25A, Scr kinase, acetylcholinesterase, MAO-A, MAO-B, CENP-E, Eg5, HDAC3, HDAC4, HMG-CoA reductase, HDAC11, surtuin-1, surtuin-2.

`CCOc1c(Cl)cc(C(=O)Nc2ccc(C(=O)O)c(C)c2)cc1OC(C)C` [Compound 56, 4-(3-Chloro-4-ethoxy-5-isopropoxybenzamido)-2-methylbenzoic acid] was tested, and the “interactions with panel of 120 receptors, channels and enzymes” value was “no significant interactions” and the “inhibition (or stimulation), all panel targets” value (two independent experiments) was ≤ 25%.
